The text below walks through data of patent US9409952B2, “Peptide-compound cyclization method” (Chugai Seiyaku Kabushiki Kaisha, priority 2011, dated 2016).

Where two headings read alike, the source gives them in different places. Starred links: 1 amine or outer side, 2 acyl side, 3 side chain; linkers in the order of their positions; H or OH if unused. Positions of bridges follow the written chain, without caps; N, C: chain ends. Non-standard residues stand in square brackets, D forms with d. Residues, ends and D or L forms follow the SMILES beside them. *: point of attachment. Phe(4-CF3) = N[C@@H](Cc1ccc(C(F)(F)F)cc1)C(=O)O; NMePhe(3-Cl) = CN[C@@H](Cc1cccc(Cl)c1)C(=O)O; Ala(4-thiazolyl) = N[C@@H](Cc1cscn1)C(=O)O; NMeF = CN[C@@H](Cc1ccccc1)C(=O)O; NMeGABA = CN(CCCC(=O)[*:2])[*:1]; NMeI = CC[C@H](C)[C@H](NC)C(=O)O; NMeβAla = CN(CCC(=O)[*:2])[*:1]; NMeL = CN[C@@H](CC(C)C)C(=O)O; NMeV = CN[C@H](C(=O)O)C(C)C; NMeA = CN[C@@H](C)C(=O)O; Piperidide = C1CCN(*)CC1; dNMeA = CN[C@H](C)C(=O)O; β3hA = C[C@H](N)CC(=O)O; Sar = CNCC(=O)O; tBu = CC(C)(C)*

The nature of data set [1]: Metabolic stability in human hepatic microsome. It is filed as in vitro ADME. To be noted: microsomes.
A short description of data set [2]: PAMPA (parallel artificial membrane permeability assay). It is filed as in vitro ADME. The settings on record: PAMPA. Summed up: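 Artificial membrane was 10% (w/v) egg lecithin plus 0.5% (w/v) cholesterol in dodecane on a PVDF filter. A 10 mM DMSO stock was added at 0.5% (v/v) to donor buffer (50 mM MOPSO, pH 6.5, 5.0% glycocholic acid). After 18 h at 37 °C, LC/MS or LC/UV gave donor and acceptor levels for Pe.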
(In general: The PAMPA barrier holds no transporters, so it reflects passive diffusion.)

The mark [3] stands for this setting: pH 7.4, human hepatic microsome, NADPH(+), read-out: CL NADPH(+).
The mark [4] stands for this setting: membrane permeation rate (Pe), 50 mM MOPSO buffer pH 6.5 with 5.0% glycocholic acid, 37° C., 18 hours, read-out: iPAMPA Pe.

As to `CC[C@H](C)[C@H]1C(=O)N[C@H](C(=O)N2CCCCC2)CC(=O)N(C)CCC(=O)N[C@@H](Cc2ccccc2)C(=O)N(C)[C@@H](CC(C)C)C(=O)N[C@@H](COC(C)(C)C)C(=O)NCC(=O)N2CCC[C@H]2C(=O)N[C@@H]([C@@H](C)O)C(=O)N[C@@H](CC(C)C)C(=O)N(C)[C@@H](C)C(=O)N[C@@H](Cc2ccccc2)C(=O)N1C` [DP-222] ([NMeβAla]F[NMeL]S(tBu)GPTL[NMeA]F[NMeI]D-Piperidide; lactam N-12), in data set [1] (setting [3]), the microsomal CLint at 1 uM came to 30 µL/min/mg. The Papp at 18 hours, 50 µM in data set [2] (setting [4]) came to 16 ×10⁻⁶ cm/s.
For the compound `CC(C)C[C@@H]1NC(=O)[C@H](CC(C)C)N(C)C(=O)[C@H](C)N(C)C(=O)[C@@H](C(C)C)NC(=O)C[C@@H](C(=O)N2CCCCC2)NC(=O)[C@H](Cc2cscn2)NC(=O)[C@H](C)N(C)C(=O)[C@H](C)N(C)C(=O)[C@H](C)N(C)C(=O)[C@H](Cc2ccccc2)NC(=O)[C@H](Cc2ccccc2)N(C)C1=O` [DP-624] ([dV][NMeA][NMeL]L[NMeF]F[NMeA][NMeA][NMeA][Ala(4-thiazolyl)]D-Piperidide; lactam N-11), the microsomal CLint at 1 uM in data set [1] (setting [3]) came out at 30 µL/min/mg. Further, the Papp at 18 hours, 50 µM in data set [2] (setting [4]) was determined as 24 ×10⁻⁶ cm/s.
Regarding `CC(C)C[C@H]1C(=O)N[C@@H](COC(C)(C)C)C(=O)N(C)[C@@H](CC(C)C)C(=O)N[C@H](C(=O)N2CCCCC2)CC(=O)N[C@H](C)C(=O)N(C)[C@@H](C)C(=O)N(C)[C@@H](Cc2ccccc2)C(=O)N(C)[C@@H](CC(C)C)C(=O)N[C@@H]([C@@H](C)O)C(=O)N(C)CC(=O)N1C` [DP-170] ([dA][NMeA][NMeF][NMeL]T[Sar][NMeL]S(tBu)[NMeL]D-Piperidide; lactam N-10), the microsomal CLint at 1 uM in data set [1] (setting [3]) is 22 µL/min/mg. In addition, in data set [2] (setting [4]), the Papp at 18 hours, 50 µM stood at 43 ×10⁻⁶ cm/s.
On to `CC(C)C[C@H]1C(=O)N[C@@H]([C@@H](C)O)C(=O)N(C)CC(=O)N(C)[C@@H](Cc2ccccc2)C(=O)N(C)[C@@H](CC(C)C)C(=O)N(C)[C@@H](Cc2ccccc2)C(=O)N(C)[C@@H](CC(C)C)C(=O)N[C@@H](C)C(=O)N[C@H](C(=O)N2CCCCC2)CC(=O)N(C)CCC(=O)N(C)[C@@H](C)C(=O)N1C` [DP-471] ([NMeβAla][NMeA][NMeL]T[Sar][NMeF][NMeL][NMeF][NMeL]AD-Piperidide; lactam N-11), for which the microsomal CLint at 1 uM in data set [1] (setting [3]) came out at 30 µL/min/mg. Besides, in data set [2] (setting [4]), the Papp at 18 hours, 50 µM turned out to be 21 ×10⁻⁶ cm/s.
For the compound `CC(C)C[C@@H]1NC(=O)[C@@H](C(C)C)NC(=O)C[C@H](C)NC(=O)[C@H](CC(C)C)N(C)C(=O)[C@H](Cc2cccc(Cl)c2)N(C)C(=O)[C@H](CC(C)C)N(C)C(=O)[C@H](Cc2ccc(C(F)(F)F)cc2)NC(=O)[C@H](C)N(C)C(=O)[C@H]([C@@H](C)O)NC1=O` [DP-792] (cyclo(LT[NMeA][Phe(4-CF3)][NMeL][NMePhe(3-Cl)][NMeL][β3hA][dV])), the microsomal CLint at 1 uM in data set [1] (setting [3]) was found to be 16 µL/min/mg. Also, the Papp at 18 hours, 50 µM in data set [2] (setting [4]) was 33 ×10⁻⁶ cm/s.
Consider `CC(C)C[C@H]1C(=O)N(C)[C@@H](C)C(=O)N[C@@H]([C@@H](C)O)C(=O)N(C)[C@@H](C)C(=O)N(C)[C@@H](C(C)C)C(=O)N[C@@H](COC(C)(C)C)C(=O)N[C@H](C(=O)N2CCCCC2)CC(=O)N(C)[C@H](C)C(=O)N(C)[C@@H](Cc2ccccc2)C(=O)N[C@@H](C)C(=O)N(C)[C@@H](C)C(=O)N[C@@H](Cc2ccccc2)C(=O)N1C` [DP-409] ([dNMeA][NMeF]A[NMeA]F[NMeL][NMeA]T[NMeA][NMeV]S(tBu)D-Piperidide; lactam N-12), for which the microsomal CLint at 1 uM in data set [1] (human, pH 7.4, CL NADPH(+)) stood at 28 µL/min/mg. For the same compound, in data set [2] (pH 6.5), the Papp at 18 hours, 50 µM stood at 13 ×10⁻⁶ cm/s.
As to `CC[C@H](C)[C@@H]1NC(=O)[C@H](C)N(C)C(=O)[C@H](CC(C)C)N(C)C(=O)[C@H](Cc2ccccc2)NC(=O)[C@H](CC(C)C)N(C)C(=O)[C@H](CC(C)C)N(C)C(=O)[C@H](C)N(C)C(=O)[C@H](Cc2ccccc2)N(C)C(=O)[C@@H](C)N(C)C(=O)C[C@@H](C(=O)N[C@H](C(=O)N2CCCCC2)[C@@H](C)CC)NC(=O)[C@H](CC(C)C)N(C)C(=O)[C@H]([C@@H](C)O)NC(=O)[C@H](COC(C)(C)C)NC1=O` [DP-963] ([dNMeA][NMeF][NMeA][NMeL][NMeL]F[NMeL][NMeA]IS(tBu)T[NMeL]DI-Piperidide; lactam N-13), in data set [1] (setting [3]), the microsomal CLint at 1 uM was determined as 18 µL/min/mg. The Papp at 18 hours, 50 µM in data set [2] (setting [4]) came to 0.1 ×10⁻⁶ cm/s.
The like results for `CC[C@H](C)[C@@H]1NC(=O)[C@H](C)N(C)C(=O)C[C@@H](C(=O)N2CCCCC2)NC(=O)[C@H](Cc2ccccc2)NC(=O)[C@H](CC(C)C)N(C)C(=O)[C@H](C(C)C)N(C)C(=O)[C@H](C)N(C)C(=O)[C@H]([C@@H](C)O)NC(=O)[C@H](Cc2ccccc2)N(C)C(=O)[C@H](C)N(C)C(=O)[C@H](CC(C)C)N(C)C1=O` [DP-481] ([NMeA]I[NMeL][NMeA][NMeF]T[NMeA][NMeV][NMeL]FD-Piperidide; lactam N-11) were, in that order, 82 µL/min/mg and 31 ×10⁻⁶ cm/s.
For `CC[C@H](C)[C@H](NC(=O)[C@H](C)N(C)C(=O)[C@@H]1CC(=O)N[C@H](C(C)C)C(=O)N(C)[C@@H](C)C(=O)N(C)[C@@H](CC(C)C)C(=O)N(C)[C@@H](CC(C)C)C(=O)N(C)CC(=O)N(C)[C@@H](Cc2ccccc2)C(=O)N[C@@H](C)C(=O)N(C)[C@@H](Cc2ccccc2)C(=O)N(C)[C@@H](CC(C)C)C(=O)N[C@@H]([C@@H](C)O)C(=O)N1)C(=O)N1CCCCC1` [DP-584] ([dV][NMeA][NMeL][NMeL][Sar][NMeF]A[NMeF][NMeL]TD[NMeA]I-Piperidide; lactam N-11), the microsomal CLint at 1 uM in data set [1] (setting [3]) was 20 µL/min/mg. The Papp at 18 hours, 50 µM in data set [2] (setting [4]) stood at 18 ×10⁻⁶ cm/s.
As to `C=C1CCC(=O)N[C@@H](CC(C)C)C(=O)N(C)[C@@H]([C@@H](C)CC)C(=O)N(C)[C@@H](CC(C)C)C(=O)NCC(=O)N(C)[C@@H](C)C(=O)N[C@@H](Cc2ccccc2)C(=O)N[C@@H]([C@@H](C)O)C(=O)N(C)[C@@H](CC(C)C)C(=O)N[C@@H](Cc2ccccc2)C(=O)N(C)[C@@H](C(C)C)C(=O)N[C@H](C(=O)N2CCCCC2)Cc2cccc1c2` [DP-882], the microsomal CLint at 1 uM in data set [1] (setting [3]) came to 32 µL/min/mg. In addition, the Papp at 18 hours, 50 µM in data set [2] (setting [4]) was 1.8 ×10⁻⁶ cm/s.
`CC[C@H](C)[C@@H]1NC(=O)[C@H](CC(C)C)N(C)C(=O)[C@H](CC(C)C)N(C)C(=O)CCN(C)C(=O)C[C@@H](C(=O)N2CCCCC2)NC(=O)[C@H](CC(C)C)N(C)C(=O)[C@H](CC(C)C)N(C)C(=O)[C@H](Cc2ccccc2)N(C)C(=O)[C@H]([C@@H](C)O)NC(=O)[C@H](Cc2ccccc2)N(C)C1=O` [DP-429] ([NMeβAla][NMeL][NMeL]I[NMeF]T[NMeF][NMeL][NMeL]D-Piperidide; lactam N-10): the microsomal CLint at 1 uM in data set [1] (setting [3]) amounted to 115 µL/min/mg. Moreover, the Papp at 18 hours, 50 µM in data set [2] (setting [4]) came to 15 ×10⁻⁶ cm/s.
Taken in the same sequence, the figures for `CC(C)C[C@@H]1NC(=O)[C@@H](C)NC(=O)C[C@@H](C(=O)N2CCCCC2)NC(=O)[C@H](CC(C)C)N(C)C(=O)[C@H](C)N(C)C(=O)[C@H](CC(C)C)N(C)C(=O)[C@H](CC(C)C)N(C)C(=O)[C@H](Cc2ccccc2)N(C)C(=O)[C@H](C)NC(=O)[C@H](Cc2ccccc2)N(C)C(=O)[C@H]([C@@H](C)O)NC1=O` [DP-139] ([dA]LT[NMeF]A[NMeF][NMeL][NMeL][NMeA][NMeL]D-Piperidide; lactam N-11) were 22 µL/min/mg and 23 ×10⁻⁶ cm/s.
For `CC(C)C[C@H]1C(=O)N(C)[C@@H](Cc2ccccc2)C(=O)N[C@H](C(=O)N2CCCCC2)CC(=O)N(C)CCCC(=O)N(C)[C@@H](C)C(=O)N(C)[C@@H](CC(C)C)C(=O)N[C@@H]([C@@H](C)O)C(=O)N(C)CC(=O)N1C` [DP-712] ([NMeGABA][NMeA][NMeL]T[Sar][NMeL][NMeF]D-Piperidide; lactam N-8), the microsomal CLint at 1 uM in data set [1] (setting [3]) was found to be 57 µL/min/mg. In addition, the Papp at 18 hours, 50 µM in data set [2] (setting [4]) amounted to 12 ×10⁻⁶ cm/s.
